The values that follow are results of earlier work, collected in patent US7879572B2, “Regulation of F1-ATPase beta subunit cellular location” (Board of Supervisors of Louisiana State University And …, priority 2004, dated 2011).

SMILES strings stand for the structures.

In one data set the test system is islet cells. The conditions noted are these: 8-Br-cAMP 1 mM, independent of extracellular Ca2+.

`Nc1ncnc2c1nc(Br)n2[C@@H]1O[C@@H]2COP(=O)(O)O[C@H]2[C@H]1O` [8-Br-cAMP]: the “effect on enterostatin inhibition of insulin secretion” value with islet cells is listed as “blocked”.

With `Oc1ccc2c3c1O[C@H]1c4[nH]c5c(c4C[C@@]4(O)[C@@H](C2)N(CC2CC2)CC[C@]314)C[C@@]1(O)[C@H]2Cc3ccc(O)c4c3[C@@]1(CCN2CC1CC1)[C@H]5O4` [nor-Binaltorphamine (BNI), nor-Binaltorphamine], the selective fat intake result (kappa-opioidergic antagonist) is “mimicked the effect of enterostatin”. With `NCCc1c[nH]c2ccc(O)cc12` [serotonin], the dietary fat intake entry (injections into the PVN) is reported as “inhibited dietary fat intake”.
